Assay results published in US5091368A, “Biologically active compounds from blue-green algae” (Harbor Branch Oceanographic Institution, Inc., priority 1990, dated 1992).
In brackets after ≈: the same amount, converted by molar mass.

Columns and labels:
[1] = tested on: murine splenocytes from BALB/c mice (lymphoid cells); assay: Lymphocyte viability assay (LCV), MTT; type: cell-based; conditions: percent of positive control (no drug)
Procedure: 1. Extra and compounds were similarly tested in parallel with the MLR to determine their toxic effects on lymphoid cells using the lymphocyte viability assay (LCV).
(§1) 3. Murine splenocyte suspensions were prepared from BALB/c mice. Spleens were aseptically removed and homogenized in RPMI-1640 tissue culture medium (TCM), supplemented with 10% fetal calf serum, 2% 1-glutamine, 15 mM HEPES, 1% antibiotic-antimycotic solution, and 25 μg/ml gentamicin (GIBCO). The cell concentrations were adjusted to 2.5 ×10^6 cells/ml.
4. A volume of 0.2 ml of the splenocyte suspension was added to replicate test wells. Positive control wells received splenocyte suspensions in the absence of the test extracts/compounds.
5. Plates were incubated at 37° C. for 86 hours. At the end of the incubation period, a volume of 75 μl of a 2.0 mg/ml solution of MTT was added to each well, and the plates were returned to the incubator for an additional 5 hours.
6. The supernatants from each microwell were then removed, and a volume of 200 μl of isopropanol was added and the contents mixed.
7. Values were obtained by comparing the optical densities (determined at 570 and 650 nm) of wells containing the test compounds with those of wells containing cells and medium only (positive control). The results are expressed as a percentage of the positive control.
8. Replicate counts were averaged, and the data reported as a percentage of the positive control. An LCV value of less than 60% of the positive control is an indication of cytotoxicity of the test extracts/compounds for lymphoid cells.

[2] = tested on: combined murine splenocyte suspensions from BALB/c and C57BL/6J mice; assay: Mixed lymphocyte reaction (MLR), 3H-thymidine incorporation; type: cell-based; conditions: percent of positive control (no drug)
Procedure: as §1, with “1.” for “3.”, “prepared separately” for “prepared”, “BALB/c and C57BL/6J” for “BALB/c”, “cells/ml. Aliquots of each cell population were removed to separate tubes, and the remaining two cell suspensions combined to one tube.” for “cells/ml.”
3. A volume of 0.2 ml of the combined splenocyte suspensions was added to triplicate test wells. Positive control wells received combined splenocyte suspensions in the absence of the test extracts/compounds. Negative control wells consisted of separate (not mixed) splenocyte suspensions cultured in the absence of the test compounds.
4. Plates were incubated in 5% CO2 at 37° C. for 86 hours.
5. A volume of 0.05 ml of ^3 H-thymidine (20 μCk/ml) was added to each well, and the plates were incubated in 5% CO2 at 37° C. for an additional 5 hours.
6. The contents of each well of the microtiter plates were harvested onto glass fiber filter strips, and the resulting filter discs placed in scintillation vials to which 2.0 ml of scintillation fluid was added.
7. The amount of incorporated ^3 H-thymidine was determined by counting the vials in a liquid scintillation counter.
8. Triplicate counts were averaged, and the data reported as a percentage of the positive control.

[3] = tested on: murine P388 leukemia cells; assay: Toxicity against murine P388 leukemia cells (MTT, 48 hour exposure); type: cell-based
Procedure: P388 cells obtained from J. Mayo, National Cancer Institute, Bethesda, Md., were maintained in Roswell Park Memorial Institute medium 1640 (RPMI-1640) supplemented with 10% horse serum. All cell lines were cultured in plastic tissue culture flasks and kept in an incubator at 37° C. in humidified air containing 5% CO2. Antibiotic-free stock cultures of P388 cells were subcultured to 10^5 cells/ml by dilution in fresh growth medium at 2-3 day intervals. The means generation time of primary cultures was 14-17 hours.
Solvent for all dilutions was methanol, which was removed from plates under vacuum. All experimental cultures were initiated in medium containing Gentamicin sulfate ([…]; Schering Corporation, Kenilworth, N.J.). […]
To quantitate the effects on cell proliferation, 75 μl of warm growth medium containing 5 mg/ml MTT was added to each well and cultures were returned to the incubator for 90 minutes. To spectophotometrically quantitate formation of reduced formazan, plates were centrifuged (900 xg, 5 minutes), culture fluids removed by aspiration, and 200 μl of acidified isopropanol (2 ml concentrated HCl/liter isopropanol) added per well. The absorbance of the resulting solutions were measured at 570 nm with a plate reader (MR700 Microplate Reader, Dynatech Laboratories, Chantilly, Va.). […]

[4] = tested on: CV-1 cells; assay: Drug cytotoxicity in the antiviral assay; type: cell-based, African green monkey; conditions: anti-HSV-1 assay; ID50 not defined in the text, TI = ID50/ED50
Description: (§2) The antiviral assay for herpes simplex virus type 1 (HSV-1) is a plaque inhibition assay. CV-1 cells (a fibroblast-like cell culture derived from primary African green monkey cells) are infected with the Kos strain of HSV-1 . Cytopathic effects (CPE) of the virus are prevented from rapid spread by a methylcellulose medium. Distinct areas of infected cells or plaques are distinguished from a surrounding area of viable CV-1 cells by staining the culture with neutral red which is a stain taken up by living cells. The viral dose can be quantitated by counting the number of plaques. Compounds with antiviral activity can be identified by comparing the plaque number in the drug treated cells to the HSV-1 viral control.
Confluent cultures of CV-1 cells are rinsed with PBS two times and 4.0 ml trypsin solution is added to 150 cm^2 tissue sulture flask. Cells are dispersed an 10×10^6 CV-1 cells in 40 ml of growth medium are added to new 150 cm^2 flasks. The number of cells added to a cell culture flask is proportional to the area. The cell culture is confluent in 5 to 7 days for use in the antiviral assay. […]
(§3) Discs are placed in wells containing cells, virus, and overlay medium. Plates are incubated at 37° C. for 48 hours, the second overlay medium is added at […] per well, and, after 24 hours additional incubation time, the plates are read. […]

[5] = tested on: herpes simplex virus type 1 (HSV-1), Kos strain; assay: HSV-1 plaque inhibition assay in CV-1 cells; type: cell-based; conditions: anti-HSV-1 activity
Description: as §2
Twenty-four well plates (16 mm diameter per well) are seeded with 2×10^5 cells per well in 0.5 ml growth medium and incubated at 37°) C. with 5% CO2. The plates are used in 24 to 72 hours. Each well is infected with at least 25 but no more than 80 plaque forming units (PFU) of virus. Plates are incubated for 1.0 hours at 37° C. with 0.2 ml virus. […]
as §3

Row | Compound | % LCV Control ([1]; 2.5 ng/ml) [%] | % LCV Control ([1]; 5.0 ng/ml) [%] | % LCV Control ([1]; 10.0 ng/ml) [%] | % LCV Control ([1]; 20.0 ng/ml) [%] | % LCV Control ([1]; 40.0 ng/ml) [%] | % LCV Control ([1]; 80.0 ng/ml) [%] | % LCV Control ([1]; 160.0 ng/ml) [%] | % LCV Control ([1]; 312.5 ng/ml) [%] | % LCV Control ([1]; 625.0 ng/ml) [%] | % LCV Control ([1]; 1250.0 ng/ml) [%] | % LCV Control ([1]; 2500.0 ng/ml) [%] | % LCV Control ([1]; 5000.0 ng/ml) [%] | % MLR Control ([2]; 2.5 ng/ml) [%] | % MLR Control ([2]; 5.0 ng/ml) [%] | % MLR Control ([2]; 10.0 ng/ml) [%] | % MLR Control ([2]; 20.0 ng/ml) [%] | % MLR Control ([2]; 40.0 ng/ml) [%] | % MLR Control ([2]; 80.0 ng/ml) [%] | % MLR Control ([2]; 160.0 ng/ml) [%] | % MLR Control ([2]; 312.5 ng/ml) [%] | also measured
1 | microcolin B | 78 | 121 | 107 | 105 | 97 | 114 | 99 | 110 | 88 | 75 | 51 | 29 | 93 | 87 | 80 | 39 | 1 | < 1 | < 1 | < 1 | % MLR Control ([2]; 625.0 ng/ml): < 1%; % MLR Control ([2]; 1250.0 ng/ml): < 1%; % MLR Control ([2]; 2500.0 ng/ml): < 1%; % MLR Control ([2]; 5000.0 ng/ml): < 1%; IC50 [3]: 0.096 µg/mL; ID50 [4]: 1185 nanograms/ml; ED50 [5]: 146.0 nanograms/ml
2 | CCCC[C@@H](C)C[C@@H](C)C(=O)N(C)[C@@H](CC(C)C)C(=O)N[C@H](C(=O)N(C)[C@H](C(=O)N1C[C@@H](O)C[C@H]1C(=O)N1C(=O)C=C[C@@H]1C)C(C)C)[C@H](C)OC(C)=O [Microcolin A, microcolin A] | 78 | 71 | 80 | 82 | 60 | 59 | 59 | 48 | 52 | 31 | 18 | 3 | < 1 | < 1 | < 1 | < 1 | < 1 | < 1 | < 1 | < 1 | % MLR Control ([2]; 625.0 ng/ml): < 1%; % MLR Control ([2]; 1250.0 ng/ml): < 1%; % MLR Control ([2]; 2500.0 ng/ml): < 1%; % MLR Control ([2]; 5000.0 ng/ml): < 1%; IC50 [3]: 0.0009 µg/mL (≈ 1.2 nM); ID50 [4]: 480 nanograms/ml; ED50 [5]: 2.5 nanograms/ml
